Experimental data: patent publication US9999690B2, “Labeled compounds and methods of imaging, diagnosing cartilage disorders and diseases, and monitoring cartilage health using labeled and unlabeled compounds” (Perosphere Inc., priority 2013, dated 2018)
“And” between values parts separate entries of the source, which are not always exact repeats. Equal values may be shown once.

Columns and labels:
[1] = In vivo safety study in humans; details: intravenous bolus doses up to 200 mg
Protocol: A study was conducted to test the safety profile of labeled formula XIII in humans in intravenous bolus doses up to 200 mg.

[2] = Rat blood PK samples after intravenous injection, Group 1; assay type: in vivo; details: rat Group 1, IV injection, in ng-eq/g
Protocol: A study was conducted to determine the pharmacokinetics, rates and routes of excretion with mass baseline and tissue distribution of radioactivity, after a single intravenous dose administration of formula XIII (also referred to as [^14C]DAP) was administered to the rats by tail vein intravenous injection at a
The study was conducted on 19 male rats divided into 4 groups. The first group of 6 rats was used for blood collection (Group 1); the second group of 4 rats was used for urine, feces, cage rinses and wipes and carcasses collection (Group 2); the third group of 4 rats was used for expired air collection (Group 3); the fourth group of 5 rats was used for terminal blood/serum and tissue distribution by Quantitative Whole-Body Autoradiography (QWBA) (Group 4).

[3] = In vivo toxicity study, dogs; details: dog, read-out: Maximum tolerated dose
Protocol: A study was conducted to test the toxicity of labeled formula XIII in rats and dogs. Maximum tolerated doses were 40 mg/kg for rats and 35 mg/kg for dogs.

Q: Which safety profile [1] does the source give for `[2H]C1([2H])N(CCCNC(=O)[C@@H](N)CCCNC(=N)N)C([2H])([2H])C([2H])([2H])N(CCCNC(=O)[C@@H](N)CCCNC(=N)N)C1([2H])[2H]` [formula XIII] here?
A: The safety profile was “excellent safety profile”.

Q: What about the “Rat Blood PK Samples” value ([2]; 0.083 hrs, Mean) of the same molecule?
A: The value was 12494.00.

Q: What about the “Rat Blood PK Samples” value ([2]; 0.083 hrs, individual rats) of the same molecule?
A: Its value is 12283.00 and 12343.00 and 12856.00.

Q: And the “Rat Blood PK Samples” value ([2]; 0.250 hrs, Mean)?
A: The value was 7636.87.

Q: What about the “Rat Blood PK Samples” value ([2]; 0.250 hrs, individual rats) of the same molecule?
A: Its value is 6989.90 and 8433.50 and 7487.20.

Q: And the “Rat Blood PK Samples” value ([2]; 0.5 hrs, Mean)?
A: Its value is 4715.77.

Q: And the “Rat Blood PK Samples” value ([2]; 0.5 hrs, individual rats)?
A: Its value is 4890.10 and 4595.70 and 4661.50.

Q: And the “Rat Blood PK Samples” value ([2]; 1 hrs, Mean)?
A: Its value is 1639.20.

Q: And the “Rat Blood PK Samples” value ([2]; 1 hrs, individual rats)?
A: Its value is 1277.80 and 2173.10 and 1466.70.

Q: And the “Rat Blood PK Samples” value ([2]; 2 hrs, Mean)?
A: Its value is 497.04.

Q: And the “Rat Blood PK Samples” value ([2]; 2 hrs, individual rats)?
A: The value was 513.73 and 503.14 and 474.26.

Q: What about the “Rat Blood PK Samples” value ([2]; 4 hrs, Mean) of the same molecule?
A: Its value is 251.03.

Q: What about the “Rat Blood PK Samples” value ([2]; 4 hrs, individual rats) of the same molecule?
A: Its value is 244.30 and 269.75 and 239.03.

Q: What about the “Rat Blood PK Samples” value ([2]; 8 hrs, Mean) of the same molecule?
A: Its value is 187.88.

Q: What about the “Rat Blood PK Samples” value ([2]; 8 hrs, individual rats) of the same molecule?
A: The value was 207.32 and 187.12 and 169.19.

Q: And the “Rat Blood PK Samples” value ([2]; 12 hrs, Mean)?
A: The value was 145.76.

Q: What about the “Rat Blood PK Samples” value ([2]; 12 hrs, individual rats) of the same molecule?
A: Its value is 149.71 and 148.64 and 138.94.

Q: And the “Rat Blood PK Samples” value ([2]; 24 hrs, Mean)?
A: The value was 99.45.

Q: And the “Rat Blood PK Samples” value ([2]; 24 hrs, individual rats)?
A: The value was 105.64 and 108.29 and 84.43.

Q: And the “Rat Blood PK Samples” value ([2]; 48 hrs, Mean)?
A: The value was 50.56.

Q: And the “Rat Blood PK Samples” value ([2]; 48 hrs, individual rats)?
A: The value was 49.28 and 52.03 and 50.38.

Q: What about the “Rat Blood PK Samples” value ([2]; 72 hrs, Mean) of the same molecule?
A: The value was 24.63.

Q: And the “Rat Blood PK Samples” value ([2]; 72 hrs, individual rats)?
A: Its value is 23.54 and 33.09 and 17.27.

Q: What about the “Rat Blood PK Samples” value ([2]; 96 hrs, Mean) of the same molecule?
A: The value was 17.23.

Q: And the “Rat Blood PK Samples” value ([2]; 96 hrs, individual rats)?
A: The value was 17.39 and 16.69 and 17.60.

Q: And the MTD [3]?
A: Its MTD is 35 mg/kg.
